Values of other authors in patent publication US20240156966A1 (priority 2021, published 2024).

Test system: influenza virus
Conditions: in vivo

CCOC(=O)C1=C[C@@H](OC(CC)CC)[C@H](NC(C)=O)[C@@H](N)C1 [Oseltamivir]
patients with detectable viral RNA: 50.0%
